Results as given in patent US7547728B2, “Treating muscle wasting with selective androgen receptor modulators” (priority 2001, dated 2009).
Several values for one entry are separate records, joined by “and”; a condition that tells them apart may be missing. Equal entries are not always repeated.

Legend:
MHC II b mRNA = assay: MHC IIb mRNA expression by RT-PCR in masseter muscle of intact female rats; format: in vivo, rat
Experimental: Rat muscle tissue was harvested in 5 volumes of RNA later solution (Ambion, cat.# 7020) and stored at 4° C. until used for RNA isolation. Total RNA was isolated in the FastPrep FP120 instrument (Qbiogene) using RNAqueous-4PCR kit (Ambion, cat # 1914) in combination with FastRNA green tubes (Qbiogene, cat.# 6040-600) at settings for time at 45 sec and speed at 6.5.1 ug of total RNA was used for reverse transcription using Retroscript kit (Ambion, cat# 1710). The mixture was incubated at 42° C. for 60 min, followed by 10 min at 92° C., and then chilled on ice and used in PCR reaction.
Relatively quantitative RT-PCR was used to analyze expression of MHC mRNA in rat musculus masseter (MM) and levator ani (LA). As an internal standard 18S ribosomal RNA was used (QuantumRNA classic 18S Internal Standard, Ambion, cat.# 1716). Linear range of PCR reaction for all primers as well as optimal ratio of 18S primers to competitors to achieve the same level of amplification as the genes of interest was determined.
Primers were obtained from IDT based on the recently published design (Wright et al., J. Appl. Phys. 1997;83:1389), with the following sequence: 5′[…]3′. […]
5 units of Taq DNA polymerase (Roche, cat# 1146165), 200 μM of each dNTP (Invitrogen, cat.#R725-01), 0.2 μM each MHC primer (IDT), 1 μl of cDNA from reverse transcription reaction and 4 μl of 18S primers: competitors mixture were used in 50 μl PCR reaction. […] PCR products were analyzed by agarose gel electrophoresis [20-μl aliquots of a 50-μl PCR reaction loaded on a 1.5% agarose gel (in 1× Tris-Acetate-EDTA buffer) containing 0.2 μg/ml ethidium bromide] to visualize the PCR products. […] Pictures were scanned and the volume of the optical density (OD) of a DNA band was determined by the Image Quant software (Molecular Dynamics), and the background was subtracted (so local background was directly proportional to the amount of DNA over a wide range). […] The content of each experimental group MHC gene was calculated as a percentage of the MHC value in the control group (Table 2).

levator ani = assay: Levator ani evaluation in androgen-treated intact female rats; format: in vivo, rat; settings: 14 and 28 days treatment
Excerpt: In these same rats, the levator ani was dissected and evaluated for the expression pattern of MHC family members. […] Physiol. 75(5): 2337-2340, 1993].

prostate = assay: Androgenic activity: prostate weight in male rats; format: in vivo, rat; settings: male rats, from organ weights
Excerpt: (§1) Male Sprague-Dawley rats were purchased from Harlan Biosciences (Indianapolis, Ind.). […] One day before the initiation of drug treatment, groups 4 through 6 and groups 7 through 9 received unilateral or bilateral orchidectomy, respectively, via a midline scrotal incision. […] All drugs given to animals were freshly prepared as solutions in polyethylene glycol 300 (PEG 300). Groups 4 and 7 received treatment with vehicle alone (i.e., PEG 300). […] The ventral prostates, seminal vesicles, and levator ani muscle were removed and weighed. Osmotic pumps were also removed from animals to check for correct pump operation. […] Statistical analyses of parameters from complete blood count or serum chemical profiling, wherever applicable, were performed by single-factor ANOVA with the alpha value set a priori at p<0.05.

seminal vesicles = assay: Androgenic activity: seminal vesicle weight in male rats; format: in vivo, rat
Excerpt: as §1

levator ani muscle = assay: Anabolic activity: levator ani muscle weight in male rats; format: in vivo, rat; settings: male rats, from organ weights
Excerpt: as §1

[1] = Adverse pharmacologic effects in rats of varying hormonal status; format: in vivo, rat; settings: male rats, 0.5 mg/day, 14 days
FSH, LH and testosterone = assay: Plasma concentrations of FSH, LH and testosterone in treated male rats; format: in vivo, rat; settings: data not shown
MHC IIb mRNA = MHC IIb mRNA expression in masseter and gastrocnemius muscle of intact male rats; settings: TP 5 mg/kg/day, Compound V 1 mg/kg/day
[2] = seminal vesicle, castrated rats, dose response 0.1-1.0 mg/day

## CC(=O)Nc1ccc(OC[C@](C)(O)C(=O)Nc2ccc([N+](=O)[O-])c(C(F)(F)F)c2)cc1 [Compound V]
MHC II b mRNA
  MHC IIb expression, % of untreated control: 124% and 124.5%
Levator ani
  Presence of levator ani muscle after treatment: had a muscle present in the location expected for the levator ani
prostate
  Agonist character in prostate: partial agonist
Seminal vesicles; male rats, from organ weights
  Agonist character in seminal vesicles: partial agonist
Seminal vesicles; [2]
  ED50: 0.55 ± 0.02 mg/day
  Emax (% of Intact Control): 28.5 ± 0.8 % of Intact Control
Levator ani muscle
  Agonist character in levator ani muscle: full agonist
[1]
  Adverse pharmacologic effects: No adverse pharmacologic effects were observed
FSH, LH and testosterone
  Changes in plasma concentrations of FSH, LH and testosterone: absence of any significant changes
MHC IIb mRNA; gastrocnemius muscle
  MHC type IIb transcription, % of untreated control: 162(±54) %
MHC IIb mRNA; masseter muscle
  MHC type IIb transcription, % of untreated control: 117(±13) %
